How the values were obtained:
Type in all cases: cell-based
[1] = system: human midbrain-like organoids (hMLOs); test: Neuromelanin-like granule formation in human midbrain-like organoids (bright field, Fontana-Masson staining); conditions: for formation of neuromelanin-like granules: 50 μM treatment, bright field images and Fontana-Masson stained sections (FIG. 3G)
Procedure: For generation of human midbrain-like organoids, human embryonic stem cell lines were used at less than 40 passages. The human embryonic stem cells were dissociated from intact colonies to single cells with TrypLE Express (Life Technologies), and 10,000 cells were plated in each well of low-cell-adhesion 96-well culture plate with V-bottomed conical wells (Sumitomo Bakelite) to form uniform EBs in neuronal induction medium containing DMEM/F12:Neurobasal (1:1), 1:100 N2 supplement (Invitrogen), 1:50 B27 without vitamin A (Invitrogen), 1% GlutaMAX (Invitrogen), 1% minimum essential media-nonessential amino acid (Invitrogen), and 0.1% β-mercaptoethanol (Invitrogen) supplemented with 1 μg/ml Heparin (Sigma-Aldrich), 10 μM SB431542 (Stemgent), 200 ng/ml Noggin (Prospec), 0.8 μM CHIR99021 (Reagents Direct), and 10 μM ROCK inhibitor Y27632 (Calbiochem). ROCK inhibitor was added for the first 48 hours and neuronal induction medium was changed on day 2. On day 4, human midbrain-like organoids were cultured with addition of 100 ng/ml SHH-C25II (R&D Systems) and 100 ng/ml FGF8 (R&D Systems) for midbrain patterning. After 3 days, the human midbrain-like organoids started to extrude neuroectodermal buds, media were completely removed and immediately 30 μl of growth factor reduced matrigel was added in each well by pipetting using pre-chilled 200 μl pipette tip. The matrigel embedded midbrain-like organoid was placed into 37° C. incubator for 30 minutes to allow the matrigel to solidify, and was grown in tissue growth induction medium containing Neurobasal, 1:100 N2 supplement (Invitrogen), 1:50 B27 without vitamin A (Invitrogen), 1% GlutaMAX (Invitrogen), 1% minimum essential media-nonessential amino acid (Invitrogen), and 0.1% β-mercaptoethanol (Invitrogen) supplemented with 2.5 μg/ml Insulin (Sigma-Aldrich), 200 ng/ml Laminin (Sigma-Aldrich), 100 ng/ml SHH-C25II (R&D Systems), and 100 ng/ml FGF8 (R&D Systems) for 24 h. […]

[2] = system: human cerebral organoids (hCOs); test: Neuromelanin-like granule formation in human cerebral organoids; conditions: 50 μM for 10 days; human cerebral organoids (FIG. 7G)
Procedure: Human midbrain-like organoids were fixed in 4% paraformaldehyde (PFA) overnight, washed in PBS, embedded in paraffin block, and subsequently sectioned at 4 μm thickness. Next, hMLOsections were deparaffinized, hydrated with distilled water, and stained by Fontana-Masson staining kit (Abcam) according to manufacturer's protocol ([…] et al., 2011). Briefly, the sections were placed in ammoniacal silver solution and incubated in a 58 to 60° C. water bath for 30 to 60 minutes until the tissue sections had become yellowish/brown in colour. The tissue sections were washed with distilled water and incubated in gold chloride solution (0.2%) for 30 seconds. Next, the sections were incubated in gold chloride solution (0.2%) for 30 seconds and subsequently incubated with sodium thiosulfate solution (5%) for 2 minutes. Finally, the sections were incubated in nuclear fast red solution for 5 minutes for staining and mounting. Images were taken on an LSM710 confocal microscope or an Observer Z. 1 inverted microscope (Zeiss).

[3] = system: neuron inside a human midbrain-like organoid; test: Whole cell patch clamp recording of spontaneous postsynaptic currents in hMLO neurons; conditions: for spontaneous excitatory postsynaptic currents (sEPSCs): neuron inside hMLO at day 80, CNQX and AP5 applied together (FIG. 4F, recording 2)
Procedure: Whole cell patch clamp recording techniques were used to measure the intrinsic properties of neurons within human midbrain-like organoids. Each human midbrain-like organoid was placed in a chamber and submerged beneath continuously perfused artificial CSF (aCSF) saturated with 95% O2 and 5% CO2 at 30 to 32° C. Patch pipettes (2 to 4 MΩ) were filled with an intracellular solution containing (in mM): Potassium methanesulfonate 135, KCl 10, HEPES 10, EGTA 1 Na2ATP 2; 290 mOsm; pH was adjusted to between 7.2 to 7.4 with KOH. Whole cell recordings were performed using IR-DIC visualization techniques with an Olympus BX51WI upright microscope, using a ×60 water immersion lens. Signals were recorded using an MultiClamp 700B amplifier, filtered at 3 kHz using a Bessel filter, and digitized at 10 kHz with a Digidata 1322A analog-to-digital (A/D) board (Molecular Devices, Sunnyvale, CA). To measure Na^+ currents and K^+ currents, voltage steps (500 msec duration) were applied from a holding potential of −70 mV to a range of test potentials between −50 and +90 mV (10 mV increments). For excitability test, a series of current pulses (500 msec) of increasing amplitude (5 pA steps) were injected to make the current-firing frequency relationship. Spontaneous excitatory postsynaptic currents (sEPSCs) were collected at a holding potential of −70 mV. Evoked excitatory postsynaptic currents (eEPSCs) was induced by tungsten wire electrodes placed about 300 μm away from the recording neuron within the hMLO.

N[C@@H](Cc1ccc(O)c(O)c1)C(=O)O [L-DOPA, L-3,4-dihydroxyphenylalanine]
formation of neuromelanin-like granules [1]: accelerated
distribution of neuromelanin-like granules ([1]; L-DOPA 50 μM, hMLO at day 35, untreated hMLO at the same day showed none): robust distribution of neuromelanin-like granules was observed
neuromelanin (NM)-like granules or coloured deposits [2]: did not show any neuromelanin (NM)-like granules

N#Cc1cc2[nH]c(=O)c(=O)[nH]c2cc1[N+](=O)[O-] [CNQX]
spontaneous excitatory postsynaptic currents (sEPSCs) [3]: blocked

NC(CCCP(=O)(O)O)C(=O)O (stereo not shown) [AP5]
spontaneous excitatory postsynaptic currents (sEPSCs) [3]: blocked

picrotoxin
spontaneous inhibitory postsynaptic currents (sIPSCs) ([3]; neuron inside hMLO at day 80 (FIG. 4F, recording 3)): blocked

NCCc1ccc(O)c(O)c1 [dopamine, 3,4-dihydroxyphenethylamine]
formation of neuromelanin-like granules [1]: accelerated
